Patent publication US20170334899A1, “AMINO-SUBSTITUTED ISOTHIAZOLES” (Bayer Pharma Aktiengesellschaft, priority 2014, published 2017)

Tests used:
[1] = test system: human cervical tumor cell line HeLa (ATCC CCL-2); assay: SAC-Formation - Nocodazole-Induced Assay; type: cell-based; conditions: Homo sapiens, HeLa, 24 h, HeLa cells, nocodazole 0.1 μg/ml together with test compound, decrease of mitotic cells (phospho-histone H3 Ser10)
How it was run: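 HeLa cells, plated overnight, were treated 24 h at 37 °C with nocodazole (0.1 μg/ml final) plus test compound (0.005–20 μM, 0.5% DMSO) added at the same time. After fixation, anti-phospho-histone H3 Ser10 and Hoechst staining gave the mitotic cell fraction by imaging. Values came from four-parameter Hill fits.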

CDK2/CycE = molecular target: T1, CDK2/CycE (Homo sapiens, UniProt P24941); assay: CDK2/CycE kinase assay (TR-FRET); type: biochemical; conditions: avg, read-out: CDK2 avg (IC50 [mol/l])
T1 construct: GST; purchased ProQinase GmbH (Freiburg, Germany); host or cells: insect cells (Sf9)
How it was run: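 GST-tagged human CDK2 and CycE from Sf9 cells, preincubated 15 min with compound, then 25 min at 22° C. with 10 μM ATP and 0.75 μM biotinylated Rb-derived peptide (final). Phospho-substrate read by TR-FRET (anti-pRB pSer807/pSer811, Eu anti-mouse IgG, streptavidin-XL665), 665/620 nm ratio, normalised to no-inhibitor and no-enzyme controls.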

| SMILES | IC50 [1] | IC50 (CDK2/CycE) |
| --- | --- | --- |
| Cc1nsc(Nc2cncc(C(F)(F)F)n2)c1C(=O)Nc1ccc(OCCN(C)C(=O)OC(C)(C)C)nc1 [Example 430, tert-Butyl methyl{2-[(5-{[(3-methyl-5-{[6-(trifluoromethyl)pyrazin-2-yl]amino}-1,2-thiazol-4-yl)carbonyl]amino}pyridin-2-yl)oxy]ethyl}carbannate] | 0.011 µM | > 20 µM |
| Cc1nsc(Nc2cnc(C(F)(F)F)cn2)c1C(=O)Nc1ccc(O[C@@H]2CN(CC(F)(F)F)C[C@@H]2F)nc1 [Example 410, N-(6-{[(3R,4S)-4-Fluoro-1-(2,2,2-trifluoroethyl)pyrrolidin-3-yl]oxy}pyridin-3-yl)-3-methyl-5-{[5-(trifluoromethyl)pyrazin-2-yl]amino}-1,2-thiazole-4-carboxamide] | 0.01 µM | > 20 µM |
| Cc1nsc(Nc2cnc3ccccc3n2)c1C(=O)Nc1ccc(NCCN(C)C(=O)OC(C)(C)C)nc1 [Example 434, tert-Butyl methyl(2-{[5-({[3-methyl-5-(quinoxalin-2-ylamino)-1,2-thiazol-4-yl]carbonyl}amino)pyridin-2-yl]amino}ethyl)carbamate] | 0.97 µM | > 20 µM |
| Cc1nsc(Nc2cnc(C(F)(F)F)cn2)c1C(=O)Nc1ccc(OCCNC(=O)C(F)(F)F)nc1 [Example 425, 3-Methyl-N-(6-{2-[(trifluoroacetyl)amino]ethoxy}pyridin-3-yl)-5-{[5-(trifluoro-methyl)pyrazin-2-yl]amino}-1,2-thiazole-4-carboxamide] | 0.72 µM | ≥ 20 µM |
| Cc1nsc(Nc2cnc(C(F)(F)F)cn2)c1C(=O)Nc1ccc(F)c(OCCCNC(=O)C(F)(F)F)c1 [Example 427, N-(4-Fluoro-3-{3-[(trifluoroacetyl)amino]propoxy}phenyl)-3-methyl-5-{[5-(trifluoro-methyl)pyrazin-2-yl]amino}-1,2-thiazole-4-carboxamide] | 0.7 µM | ≥ 20 µM |
| Cc1nsc(Nc2ccc(C#N)cn2)c1C(=O)Nc1ccc(OC2CCCNC2)nc1 (stereo not shown) [Example 37, 5-[(5-Cyanopyridin-2-yl)amino]-3-methyl-N-[6-(piperidin-3-yloxy)pyridin-3-yl]-1,2-thiazole-4-carboxamide] | 4.2 µM | ≥ 20 µM |
| Cc1nsc(Nc2cnc(C(F)(F)F)cn2)c1C(=O)Nc1ccc(OC2CCN(C(=O)OC(C)(C)C)CC2)nc1 [Example 5, tert-Butyl 4-[(5-{[(3-methyl-5-{[5-(trifluoromethyl)pyrazin-2-yl]amino}-1,2-thiazol-4-yl)carbonyl]amino}pyridin-2-yl)oxy]piperidine-1-carboxylate] | 0.043 µM | ≥ 20 µM |
| Cc1nsc(Nc2cnc(C(F)(F)F)cn2)c1C(=O)Nc1ccc(F)c(OC[C@H]2CCCN(CC(F)(F)F)C2)c1 [Example 419, N-(4-Fluoro-3-{[(3S)-1-(2,2,2-trifluoroethyl)piperidin-3-yl]methoxy}phenyl)-3-methyl-5-{[5-(trifluoromethyl)pyrazin-2-yl]amino}-1,2-thiazole-4-carboxamide] | 0.038 µM | > 20 µM |
| Cc1nsc(Nc2ccc(C#N)cn2)c1C(=O)Nc1ccc(OC2CCCN(CCF)C2)nc1 (stereo not shown) [Example 38, 5-[(5-Cyanopyridin-2-yl)amino]-N-(6-{[1-(2-fluoroethyl)piperidin-3-yl]oxy}pyridin-3-yl)-3-methyl-1,2-thiazole-4-carboxamide] | 1.8 µM | ≥ 20 µM |
| Cc1nsc(Nc2cc(C#N)ccn2)c1C(=O)Nc1ccc(OCCCNCC(F)F)nc1 [Example 45, 5-[(4-Cyanopyridin-2-yl)amino]-N-(6-{3-[(2,2-difluoroethyl)amino]propoxy}pyridin-3-yl)-3-methyl-1,2-thiazole-4-carboxamide] | 3.5 µM | ≥ 20 µM |
| Cc1nsc(Nc2cnc3ccccc3n2)c1C(=O)Nc1cccc(NC(=O)C(F)(F)F)c1 [Example 432, 3-Methyl-5-(quinoxalin-2-ylamino)-N-{3-[(trifluoroacetyl)amino]phenyl}-1,2-thiazole-4-carboxamide] | 0.17 µM | > 20 µM |
